Measured values: patent US12240862B2, “Inhibitors of peptidylarginine deiminases” (Gilead Sciences, Inc., priority 2020, dated 2025)
pIC50: −log10 of the molar value.

Biological target: T1, human PAD4 (Homo sapiens, UniProt Q9UM07)
T1 construct: human PAD4 (NM_012387), A2P663, was PCR amplified; His-SUMO (N, cleaved yes); made in house; host or cells: E. coli BL21(DE3)
Assay: In vitro PAD4 BAEE biochemical assay
Conditions: human PAD4, BAEE substrate; 5 nM PAD4, 2 mM calcium chloride, 3 mM BAEE; geometric mean of multiple experiments
How it was run: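 Tag-free recombinant hPAD4 (5 nM), 2 mM CaCl2, 3 mM BAEE, 50 mM MOPS pH 7.6, 2 mM DTT; 30 min compound preincubation, 2 h reaction, all 25 °C. EDTA quench; ammonia read via o-phthalaldehyde amine coupling, 1 h.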

T1 sequence (Q9UM07 2-663): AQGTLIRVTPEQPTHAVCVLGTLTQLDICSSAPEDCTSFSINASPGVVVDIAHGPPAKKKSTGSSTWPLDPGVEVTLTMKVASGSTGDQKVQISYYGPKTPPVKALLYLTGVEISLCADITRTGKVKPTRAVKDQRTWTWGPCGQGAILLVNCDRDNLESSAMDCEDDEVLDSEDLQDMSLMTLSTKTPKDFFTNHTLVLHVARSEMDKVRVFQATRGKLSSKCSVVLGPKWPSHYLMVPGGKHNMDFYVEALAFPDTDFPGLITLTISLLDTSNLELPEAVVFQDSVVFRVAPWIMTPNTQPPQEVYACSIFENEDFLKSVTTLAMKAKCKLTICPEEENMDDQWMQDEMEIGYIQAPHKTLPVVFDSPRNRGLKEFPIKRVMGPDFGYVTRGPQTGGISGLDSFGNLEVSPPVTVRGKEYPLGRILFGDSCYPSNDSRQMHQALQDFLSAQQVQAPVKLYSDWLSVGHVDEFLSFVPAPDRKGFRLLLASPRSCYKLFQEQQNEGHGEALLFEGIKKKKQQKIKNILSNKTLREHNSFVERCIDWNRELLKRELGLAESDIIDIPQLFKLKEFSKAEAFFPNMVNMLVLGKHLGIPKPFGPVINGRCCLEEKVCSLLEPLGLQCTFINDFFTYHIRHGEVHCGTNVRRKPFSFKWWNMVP

| SMILES | pIC50 |
| --- | --- |
| COc1cc(C(=O)N2CC[C@@H](O)[C@@H](N)C2)cc2nc(-c3cc4ccc([C@@H](C)NC(=O)c5ccccc5)nc4n3CC3CC3)c(C)n12 [Example 115] | 6.75 |
| COc1cc(C(=O)N2[C@H]3CC[C@@H]2[C@H](N)C3)cc2nc(-c3cc4ccc([C@@H](C)NC(=O)c5ccccc5C)nc4n3CC3CC3)c(C)n12 [Example 121, ~{N}-[(1~{R})-1-[2-[7-[(1~{R},2~{R},4~{S})-2-amino-7-azabicyclo[2.2.1]heptane-7-carbonyl]-5-methoxy-3-methylimidazo [1,2-a]pyridin-2-yl]-1-(cyclopropylmethyl)pyrrolo [2,3-b]pyridin-6-yl]ethyl]-2-methylbenzamide] | 6.97 |
| COc1cc(C(=O)N2[C@H]3CC[C@@H]2[C@H](N)C3)cc2nc(-c3cc4ccc([C@@H](C)NC(=O)c5cccc(C#N)c5)nc4n3CC3CC3)c(C)n12 [Example 122, ~{N}-[(1~{R})-1-[2-[7-[(1~{R},2~{R},4~{S})-2-amino-7-azabicyclo[2.2.1]heptane-7-carbonyl]-5-methoxy-3-methylimidazo [1,2-a]pyridin-2-yl]-1-(cyclopropylmethyl)pyrrolo [2,3-b]pyridin-6-yl]ethyl]-3-cyanobenzamide] | 7.11 |
| COc1cc(C(=O)N2[C@H]3CC[C@@H]2[C@H](N)C3)cc2nc(-c3cc4ccc([C@@H](C)NC(=O)c5ccc(C#N)cc5)nc4n3CC3CC3)c(C)n12 [Example 123, ~{N}-[(1~{R})-1-[2-[7-[(1~{R},2~{R},4~{S})-2-amino-7-azabicyclo[2.2.1]heptane-7-carbonyl]-5-methoxy-3-methylimidazo [1,2-a]pyridin-2-yl]-1-(cyclopropylmethyl)pyrrolo [2,3-b]pyridin-6-yl]ethyl]-4-cyanobenzamide] | 7.10 |
| COc1cc(C(=O)N2CCCC(C)(N)C2)cc2nc(-c3cc4ccc([C@@H](C)NC(=O)C56CC(F)(C5)C6)nc4n3CC3CC3)c(C3CC3)n12 (stereo partly drawn) [Example 124, ~{N}-[(1~{R})-1-[2-[7-(3-amino-3-methylpiperidine-1-carbonyl)-3-cyclopropyl-5-methoxyimidazo [1,2-a]pyridin-2-yl]-1-(cyclopropylmethyl)pyrrolo [2,3-b]pyridin-6-yl]ethyl]-3-fluorobicyclo[1.1.1]pentane-1-carboxamide] | 4.89 |
| COc1cc(C(=O)N2CCC[C@@H](N)C2)cc2nc(-c3cc4ccc([C@@H](C)NC(=O)C56CC(F)(C5)C6)nc4n3CC3CC3)c(C)n12 [Example 125, ~{N}-[(1~{R})-1-[2-[7-[(3~{R})-3-aminopiperidine-1-carbonyl]-5-methoxy-3-methylimidazo[1,2-a]pyridin-2-yl]-1-(cyclopropylmethyl)pyrrolo[2,3-b]pyridin-6-yl]ethyl]-3-fluorobicyclo[1.1.1] pentane-1-carboxamide] | 7.10 |
| COc1cc(C(=O)N2CCC[C@@H](N)C2)cc2nc(-c3cc4ccc([C@@H](C)NC(=O)C(C)(C)O)nc4n3CC3CC3)c(C)n12 [Example 127, ~{N}-[(1~{R})-1-[2-[7-[(3~{R})-3-aminopiperidine-1-carbonyl]-5-methoxy-3-methylimidazo [1,2-a]pyridin-2-yl]-1-(cyclopropylmethyl)pyrrolo [2,3-b]pyridin-6-yl]ethyl]-2-hydroxy-2-methylpropanamide] | 7.12 |

Now those with a higher pIC50, led by results:

| pIC50 | SMILES |
| --- | --- |
| 7.46 | COc1cc(C(=O)N2[C@H]3CC[C@@H]2[C@H](N)C3)cc2nc(-c3cc4ccc([C@@H](C)NC(=O)c5cnn(C)c5)nc4n3CC3CC3)c(C)n12 [Example 116, ~{N}-[(1~{R})-1-[2-[7-[(1~{R},2~{R},4~{S})-2-amino-7-azabicyclo[2.2.1]heptane-7-carbonyl]-5-methoxy-3-methylimidazo [1,2-a]pyridin-2-yl]-1-(cyclopropylmethyl)pyrrolo [2,3-b]pyridin-6-yl]ethyl]-1-methylpyrazole-4-carboxamide] |
| 7.48 | COc1cc(C(=O)N2[C@H]3CC[C@@H]2[C@H](N)C3)cc2nc(-c3cc4ccc([C@@H](C)NC(=O)c5cnco5)nc4n3CC3CC3)c(C)n12 [Example 117, ~{N}-[(1~{R})-1-[2-[7-[(1~{R},2~{R},4~{S})-2-amino-7-azabicyclo[2.2.1]heptane-7-carbonyl]-5-methoxy-3-methylimidazo [1,2-a]pyridin-2-yl]-1-(cyclopropylmethyl)pyrrolo [2,3-b]pyridin-6-yl]ethyl]-1,3-oxazole-5-carboxamide] |
| 7.20 | COc1cc(C(=O)N2[C@H]3CC[C@@H]2[C@H](N)C3)cc2nc(-c3cc4ccc([C@@H](C)NC(=O)c5ncccn5)nc4n3CC3CC3)c(C)n12 [Example 118, ~{N}-[(1~{R})-1-[2-[7-[(1~{R},2~{R},4~{S})-2-amino-7-azabicyclo[2.2.1]heptane-7-carbonyl]-5-methoxy-3-methylimidazo [1,2-a]pyridin-2-yl]-1-(cyclopropylmethyl)pyrrolo [2,3-b]pyridin-6-yl]ethyl]pyrimidine-2-carboxamide] |
| 7.46 | COc1cc(C(=O)N2[C@H]3CC[C@@H]2[C@H](N)C3)cc2nc(-c3cc4ccc([C@@H](C)NC(=O)c5ccncc5)nc4n3CC3CC3)c(C)n12 [Example 119, ~{N}-[(1~{R})-1-[2-[7-[(1~{R},2~{R},4~{S})-2-amino-7-azabicyclo[2.2.1]heptane-7-carbonyl]-5-methoxy-3-methylimidazo [1,2-a]pyridin-2-yl]-1-(cyclopropylmethyl)pyrrolo [2,3-b]pyridin-6-yl]ethyl] pyridine-4-carboxamide] |
| 7.52 | COc1cc(C(=O)N2[C@H]3CC[C@@H]2[C@H](N)C3)cc2nc(-c3cc4ccc([C@@H](C)NC(=O)c5cccnc5)nc4n3CC3CC3)c(C)n12 [Example 120, ~{N}-[(1~{R})-1-[2-[7-[(1~{R},2~{R},4~{S})-2-amino-7-azabicyclo[2.2.1]heptane-7-carbonyl]-5-methoxy-3-methylimidazo [1,2-a]pyridin-2-yl]-1-(cyclopropylmethyl)pyrrolo [2,3-b]pyridin-6-yl]ethyl]pyridine-3-carboxamide] |
| 7.34 | COc1cc(C(=O)N2[C@H]3CC[C@@H]2[C@H](N)C3)cc2nc(-c3cc4ccc([C@@H](C)NC(=O)C(C)(C)O)nc4n3CC3CC3)c(C)n12 [Example 126, ~{N}-[(1~{R})-1-[2-[7-[(1~{R},2~{R},4~{S})-2-amino-7-azabicyclo[2.2.1]heptane-7-carbonyl]-5-methoxy-3-methylimidazo [1,2-a]pyridin-2-yl]-1-(cyclopropylmethyl)pyrrolo [2,3-b]pyridin-6-yl]ethyl]-2-hydroxy-2-methylpropanamide] |
| 7.45 | COc1cc(C(=O)N2[C@H]3CC[C@@H]2[C@H](N)C3)cc2nc(-c3cc4ccc([C@@H](C)NC(=O)C5(CO)CC5)nc4n3CC3CC3)c(C)n12 [Example 128, ~{N}-[(1~{R})-1-[2-[7-[(1~{R},2~{R},4~{S})-2-amino-7-azabicyclo[2.2.1]heptane-7-carbonyl]-5-methoxy-3-methylimidazo [1,2-a]pyridin-2-yl]-1-(cyclopropylmethyl)pyrrolo [2,3-b]pyridin-6-yl]ethyl]-1-(hydroxymethyl) cyclopropane-1-carboxamide] |
| 7.25 | COc1cc(C(=O)N2CCC[C@@H](N)C2)cc2nc(-c3cc4ccc([C@@H](C)NC(=O)C5(CO)CC5)nc4n3CC3CC3)c(C)n12 [Example 129, ~{N}-[(1~{R})-1-[2-[7-[(3~{R})-3-aminopiperidine-1-carbonyl]-5-methoxy-3-methylimidazo [1,2-a]pyridin-2-yl]-1-(cyclopropylmethyl)pyrrolo [2,3-b]pyridin-6-yl]ethyl]-1-(hydroxymethyl) cyclopropane-1-carboxamide] |
